Measurements reported in patent US8791075B2, “Methods and compositions for inhibition of BCL6 repression” (Albert Einstein College of Medicine of Yeshiva University, priority 2008, dated 2014).
Square brackets hold non-standard residues; d marks the D form. Ends that are not written are not given here. Peptide text beside a SMILES is read from it.

System: DLBCL cell lines known to be biologically dependent on BCL6 (ly1, Ly7 and Ly10)
Assay: DLBCL cell growth inhibition, BCL6-dependent cell lines
Format: cell-based, human
Settings: for anti-lymphoma activity: BCL6 dependent DLBCL cells, 48 h; for GI50: Ly1, Ly7, Ly10, 48 hr total amount, dose frequency as in Table 1
Protocol: DLBCL cell lines were grown at its respective concentration that were sufficient to keep the untreated cells in exponential growth over the 48 h peptide exposure time. Cell viability was determined by using a fluorometric resazurin reduction method (CellTiter-Blue, Promega) following the manufacturer instructions. The fluorescence (560Ex/590Em) was determined using the Polarstar Optima microplate reader (BMG Labtechnologies). The number of viable cells in each treated well was calculated by using the linear least-squares regression of the standard curve. Optical density was determined for 6 replicates per treatment condition or standard. Cell viability in peptide-treated cells was normalized to their respective controls. Cell viability was verified by the Sulforhodamine B assay (Sigma, Milwaukee, Wis.) following manufacturer's instructions with minor modifications for suspended cells. Experiments were carried out in triplicates and data are represented as percentage of growth inhibition to respective control with 95% confidence interval.
DLBCL cell growth inhibition was chosen as the most relevant screening assay to compare and contrast the biological activity of BPI and its derivatives. […] Growth inhibition was measured by a metabolic viability assay and verified by trypan blue exclusion and were performed in biological quintuplicates. […]

Row | Molecule | anti-lymphoma activity | GI50 | other results
1 | YGRKKRRQRRRGGLVATVKEAGRSIHEIPREEL [S1] | not active | – | –
2 | CC[C@@H](C)[C@@H](NC(=O)CNC(=O)[C@@H](CCCNC(=N)N)NC(=O)CNC(=O)CNC(=O)[C@@H](CCCNC(=N)N)NC(=O)[C@@H](CCCCN)NC(=O)[C@@H](CCCCN)NC(=O)[C@@H](CCCNC(=N)N)NC(=O)[C@@H](CCCNC(=N)N)NC(=O)[C@@H](CCC(N)=O)NC(=O)[C@@H](CCCNC(=N)N)NC(=O)[C@@H](CCCNC(=N)N)NC(=O)[C@@H](CCCNC(=N)N)NC(=O)CN)C(=O)N[C@H](CCC(=O)O)C(=O)N[C@H](Cc1c[nH]cn1)C(=O)N[C@@H](C(=O)N[C@H](CO)C(=O)N[C@H](CCCNC(=N)N)C(=O)NCC(=O)O)[C@H](C)CC [S7] (H-G[dR][dR][dR][dQ][dR][dR][dK][dK][dR]GG[dR]G[dI][dE][dH][dI][dS][dR]G-OH; N-terminus and C-terminus assumed) | significantly weaker | – | –
3 | G[dD][dI][dM]G[dE][dW]G[dN][dE][dI][dF]G[dA][dI][dA]G[dF][dL]GG[dR][dR][dR][dQ][dR][dR][dK][dK][dR]GGRSIHEIPRG [S4] | – | 14.4 µM | –
4 | NH2-GLFGAIAGFIENGWEGMIDG-OH (H-GLFGAIAGFIENGWEGMIDG-OH) [Fu, reference compound] | – | – | effect on DLBCL viability (FIG. 8) (Ly1, Ly7 and Ly10, peptides administered every 4 h during a 48 h interval): little or no effect
5 | YGRKKRRQRRRGGRSIHEIPRG [S2] | – | 21.7 µM | –
